These results are taken from ChEMBL document CHEMBL1255176, “Novel dihydropyrimidines as a potential new class of antitubercular agents” (2010).

SMILES strings stand for the structures. Values after ≈ are worked out from the molar mass of the structure shown.

Common to all, as to assay type: functional
Test [1] relates to Mycobacterium tuberculosis. Put plainly: Antitubercular activity against Mycobacterium tuberculosis H37Rv at 6.25 ug/ml by microplate alamar blue assay.
Test [2] relates to Mycobacterium tuberculosis. Put plainly: Antitubercular activity against Mycobacterium tuberculosis H37Rv by twofold dilution method.
A short description of test [3]: Selectivity index, ratio of IC50 for african green monkey Vero cells to MIC for Mycobacterium tuberculosis H37Rv.

In turn, `CCOC(=O)C1=C(C)NC(=O)NC1c1cn(-c2ccccc2)nc1-c1ccc(C)cc1` (centres undefined) yielded an inhibition at 6.25 µg/mL in test [1] of 68%.
On the same count and under the same terms, the same measure for `COC(=O)C1=C(C)NC(=S)NC1c1cn(-c2ccccc2)nc1-c1ccc(Br)cc1` (centres undefined): 43%.
As to `COC(=O)C1=C(C)NC(=S)NC1c1cn(-c2ccccc2)nc1-c1ccc([N+](=O)[O-])cc1` (centres undefined), in test [1], the inhibition at 6.25 µg/mL is 91%. Further, the MIC in test [2] amounted to 3.13 µg/mL (≈ 6.96 µM). In addition, in test [3], the “Selectivity Index” value came to 3.
For `COC(=O)C1=C(C)NC(=S)NC1c1cn(-c2ccccc2)nc1-c1ccc(C)cc1` (centres undefined), the inhibition at 6.25 µg/mL in test [1] amounted to 46%.
Same read-out and setting: with `COC(=O)C1=C(C)NC(=O)NC1c1cn(-c2ccccc2)nc1-c1ccc(F)cc1` (centres undefined) the figure was 62%; with `COC(=O)C1=C(C)NC(=O)NC1c1cn(-c2ccccc2)nc1-c1ccc(Cl)cc1` (centres undefined), 75%.
For `COC(=O)C1=C(C)NC(=O)NC1c1cn(-c2ccccc2)nc1-c1ccc(Br)cc1` (centres undefined), at 6.25 µg/mL the inhibition in test [1] was 90%. Also, 6.25 µg/mL (≈ 13.4 µM) was the least that counted as inhibitory in test [2] (MIC). In test [3], the “Selectivity Index” value is listed as greater than 1.6.
Compound `COC(=O)C1=C(C)NC(=O)NC1c1cn(-c2ccccc2)nc1-c1ccc([N+](=O)[O-])cc1` (centres undefined) had an inhibition at 6.25 µg/mL in test [1] of 39%.
`CCOC(=O)C1=C(C)NC(SC)NC1c1cn(-c2ccccc2)nc1-c1ccc(F)cc1` (centres undefined) yielded an inhibition at 6.25 µg/mL in test [1] of 8%.
With `CCOC(=O)C1=C(C)NC(SC)NC1c1cn(-c2ccccc2)nc1-c1ccc(Cl)cc1` (centres undefined), the inhibition at 6.25 µg/mL in test [1] worked out at 13%.
The same measure, in the same setting: with `CCOC(=O)C1=C(C)NC(SC)NC1c1cn(-c2ccccc2)nc1-c1ccc(Br)cc1` (centres undefined) the figure was 13%; with `CCOC(=O)C1=C(C)NC(SC)NC1c1cn(-c2ccccc2)nc1-c1ccc([N+](=O)[O-])cc1` (centres undefined), 37%.
`CCOC(=O)C1=C(C)NC(SC)NC1c1cn(-c2ccccc2)nc1-c1ccc(C)cc1` (centres undefined) came in with an inhibition at 6.25 µg/mL in test [1] of 97%. Moreover, the lowest concentration to inhibit growth in test [2] (MIC) was 1.56 µg/mL (≈ 3.48 µM). Further, the “Selectivity Index” value in test [3] is reported as 4.7.
The matching figures for `CCOC(=O)C1=C(C)NC(=O)NC1c1cn(-c2ccccc2)nc1-c1ccc([N+](=O)[O-])cc1` (centres undefined): 100%, 0.02 µg/mL (≈ 0.0447 µM) and greater than 500.
`CCOC(=O)C1=C(C)NC(=N)NC1c1cn(-c2ccccc2)nc1-c1ccc([N+](=O)[O-])cc1` (centres undefined) returned an inhibition at 6.25 µg/mL in test [1] of 58%.
The compound `CCOC(=O)C1=C(C)NC(=S)NC1c1cn(-c2ccccc2)nc1-c1ccc(Cl)cc1` (centres undefined) came in with an inhibition at 6.25 µg/mL in test [1] of 75%.
The same measure, in the same setting: with `CCOC(=O)C1=C(C)NC(=S)NC1c1cn(-c2ccccc2)nc1-c1ccc(Br)cc1` (centres undefined) the figure was 87%.
Take `COC(=O)C1=C(C)NC(=O)NC1c1cn(-c2ccccc2)nc1-c1ccc(C)cc1` (centres undefined): at 6.25 µg/mL the inhibition in test [1] was 98%. For the same compound, the MIC in test [2] came out at 1.56 µg/mL (≈ 3.88 µM). Also, the “Selectivity Index” value in test [3] is greater than 6.4.
The matching figures for `CCOC(=O)C1=C(C)NC(=O)NC1c1cn(-c2ccccc2)nc1-c1ccc(F)cc1` (centres undefined): 100%, 0.02 µg/mL (≈ 0.0476 µM) and greater than 500.
In test [1], `CCOC(=O)C1=C(C)NC(=O)NC1c1cn(-c2ccccc2)nc1-c1ccc(Cl)cc1` (centres undefined) registered an inhibition at 6.25 µg/mL of 49%.
Consider `CCOC(=O)C1=C(C)NC(=O)NC1c1cn(-c2ccccc2)nc1-c1ccc(Br)cc1` (centres undefined), for which the inhibition at 6.25 µg/mL in test [1] stood at 33%.
Same read-out and setting: with `CCOC(=O)C1=C(C)NC(=S)NC1c1cn(-c2ccccc2)nc1-c1ccc(F)cc1` (centres undefined) the figure was 30%.
With `CCOC(=O)C1=C(C)NC(=S)NC1c1cn(-c2ccccc2)nc1-c1ccc([N+](=O)[O-])cc1` (centres undefined), the inhibition at 6.25 µg/mL in test [1] was 92%. In test [2], it took 3.13 µg/mL (≈ 6.75 µM) to inhibit growth (MIC). The “Selectivity Index” value in test [3] was greater than 3.2.
The matching figures for `CCOC(=O)C1=C(C)NC(=S)NC1c1cn(-c2ccccc2)nc1-c1ccc(C)cc1` (centres undefined): 96%, 1.56 µg/mL (≈ 3.61 µM) and 5.7.
On to `CCOC(=O)C1=C(C)NC(=N)NC1c1cn(-c2ccccc2)nc1-c1ccc(F)cc1` (centres undefined), for which, in test [1], the inhibition at 6.25 µg/mL came out at 18%.
In turn, `CCOC(=O)C1=C(C)NC(=N)NC1c1cn(-c2ccccc2)nc1-c1ccc(Cl)cc1` (centres undefined) registered an inhibition at 6.25 µg/mL in test [1] of 94%. For the same compound, the MIC in test [2] came out at 3.13 µg/mL (≈ 7.18 µM). Besides, the “Selectivity Index” value in test [3] was greater than 3.2.
In the case of `CCOC(=O)C1=C(C)NC(=N)NC1c1cn(-c2ccccc2)nc1-c1ccc(Br)cc1` (centres undefined), in test [1], the inhibition at 6.25 µg/mL amounted to 51%.
In test [1], `CCOC(=O)C1=C(C)NC(=N)NC1c1cn(-c2ccccc2)nc1-c1ccc(C)cc1` (centres undefined) registered an inhibition at 6.25 µg/mL of 78%.
Consider `COC(=O)C1=C(C)NC(=S)NC1c1cn(-c2ccccc2)nc1-c1ccc(F)cc1` (centres undefined), for which the inhibition at 6.25 µg/mL in test [1] was determined as 73%.
`COC(=O)C1=C(C)NC(=S)NC1c1cn(-c2ccccc2)nc1-c1ccc(Cl)cc1` (centres undefined) registered an inhibition at 6.25 µg/mL in test [1] of 68%.
`NNC(=O)c1ccncc1` [ISONIAZID] gave an MIC in test [2] of 0.03 µg/mL (≈ 0.219 µM).
